In patent EP4733299A1, “SULFUR-CONTAINING FUSED RING COMPOUND, PHARMACEUTICAL COMPOSITION CONTAINING SAME, AND PREPARATION METHOD THEREFOR AND USE THEREOF” (Shenzhen Braegen Pharmaceutical Co., Ltd., priority 2023, dated 2024):
pKd: −log10 of the molar value.

Legend:
[1] = target: T1, p-α-Syn S129 (Homo sapiens, UniProt P37840); assay: Ex vivo staining of human DLB patient brain sections; type: binding; details: DLB patient brain slides; Fig. 3
T1 construct: from tissue; host or cells: human DLB patient brain sections
Description: The ex vivo screening was extended into human DLB, and AD patient samples. Neurodegenerative diseases of DLB belong to synucleino-pathies with well-defined Lewy bodies. Therefore, the positive compounds should show robust signals with LBs and LNs.
For immunohistochemical staining, deparaffinized and antigen-retrieved 20 µm-thick human brain sections were treated with 0.3% H2O2 at room temperature for 10 min. Subsequently, the sections were washed in PBS with 0.3% Triton X-100 3 times and then blocked with 1% BSA for 30 min, followed by overnight incubation with anti-Aβ/AT8/α-Syn pS129 antibody at 4 °C. The signal was developed using a Histostain-SP kit (Invitrogen, Catalog No.: 95-9943). After washing, the sections were covered with a glass cover using mounting solution.

[2] = system: α-Syn aggregated neurons; assay: Staining of primary cultured neurons infected with AAV α-Syn and treated with α-Syn PFFs, fluorescence microscopy; type: cell-based, Sprague-Dawley rats; details: compounds 0.1 mM; Fig. 1
Description: Primary cultured neurons were infected with adeno-associated virus (AAV) encoding a-Syn for 7 days and then treated with a-Syn PFFs. The candidate compounds were added to the primary neurons with the indicated aggregates and analyzed using fluorescence microscopy.
Primary hippocampal neurons were isolated from […] pregnant rats. The Sprague-Dawley rats were used at embryonic E18 days. The cortical tissue was isolated, dissociated, and incubated with 5 ml of D-Hanks containing 0.25% trypsin for 5 min at 37 °C in a humidified atmosphere of 5% CO2, centrifuged at 1000 x g for 5 min after addition of 4 ml of the neuronal plating medium containing DMEM/F12 with 10% fetal bovine serum. The 1 × 10^5 cells were plated in 6-well plates for further process. DIV7 neurons were infected with AAV α-Syn FL virus and at DIV12, the neurons were transduced with 100 ng/ml α-Syn PFF, α-Syn 1-140 were incubated with the cultured primary neurons in sterile PBS to a final concentration of 0.1 mg/ml. Sonicated PFFs, or an equivalent volume of the monomer as a control, were transferred into pre-warmed neuronal medium at a final concentration of 100 ng/ml. The samples were immune-stained with anti-p-α-Syn S129 (Abcam; Catalog No.: ab59264) (pseudo-colors were converted to red) to detect a-Syn aggregates and then stained with ThT (Sigma; Catalog No.: S96200) or compounds (0.1 mM).

[3] = target: T2, α-Synuclein aggregates (Homo sapiens, UniProt P37840); assay: Fluorescence binding assay with protein aggregates (fluorescence spectrophotometer); details: compound 5 µM, 37°C, 5 min
T2 construct: purchased Proteos Inc RP-002
Description: (§1) First, the compound was a final concentration of 5 µM by dissolved in 50 mM Tris-buffer (pH 7.0) with 0.0025% (v/v) DMSO. Then, Aβ, α-Synuclein, and Tau aggregates were added, with their final concentrations being 0.02, 0.04, 0.08, 0.16, 0.32, 0.64, and 1.28 µM, respectively. Subsequently, the fluorescence measurements were detected using a fluorescence spectrophotometer (Horiba, Fluorolog3).
α-synuclein Aggregates (Proteos Inc; catalog No.: RP-002).
(§2) Tau aggregates: The cDNA sequence of Tau was inserted into a plasmid carrying a GST tag, which was then transfected into BL21 bacteria for protein expression. Bacterial pellets were resuspended in high-salt buffer (0.75 M NaCl, 50 mM Tris, pH 7.4, 1 mM EDTA), sonicated, and centrifuged at 70,000 x g for 30 min. The supernatants were applied onto a Glutathione sepharose beads column (GE Healthcare) and purified by GST tag. Thrombin was used to remove the GST tag. The protein was dialyzed with FPLC buffer (50 mM NaCl, 50 mM Tris- HCl pH 7.4). The protein was filtered through a 0.22 µm syringe filter. The concentration of Tau was adjusted to 3 mg/mL, 12.5 µM heparin was added, and the mixture was shaken at 37 °C and 300 rpm for 7 days to prepare Tau aggregates. • Incubation Concentrations: 0.02, 0.04, 0.08, 0.16, 0.32, 0.64, and 1.28 µM; • Incubation Temperature: 37°C; • Incubation Duration: 5 min; • Detection Wavelengths: [formula]
(§3) Statistical analysis was performed using GraphPad Prism® version 8.2.1.

[4] = target: Tau aggregates (Homo sapiens, UniProt P10636); assay: as above; details: 5 min; for Ratio / α-Synuclein: Kd for Tau to Kd for α-Synuclein; for pKd: Tau aggregates, compound 5 µM, 37°C
Tau aggregates, sequence (P10636 with tags, fused parts or gaps): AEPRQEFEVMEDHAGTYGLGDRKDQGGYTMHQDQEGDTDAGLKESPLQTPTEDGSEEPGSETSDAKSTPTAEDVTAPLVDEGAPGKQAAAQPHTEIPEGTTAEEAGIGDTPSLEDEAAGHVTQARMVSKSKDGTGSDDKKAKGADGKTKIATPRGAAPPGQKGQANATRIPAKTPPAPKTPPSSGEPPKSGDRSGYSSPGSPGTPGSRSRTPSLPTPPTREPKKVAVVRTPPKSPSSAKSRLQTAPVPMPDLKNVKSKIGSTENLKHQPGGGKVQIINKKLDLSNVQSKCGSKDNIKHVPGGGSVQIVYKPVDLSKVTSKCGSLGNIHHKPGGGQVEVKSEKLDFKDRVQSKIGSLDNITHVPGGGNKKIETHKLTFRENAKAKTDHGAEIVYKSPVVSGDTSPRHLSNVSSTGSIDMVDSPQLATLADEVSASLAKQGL
Description: as §1, §2, §3

[5] = target: T3, AT8 (Homo sapiens, UniProt P10636, P618S); assay: In vivo validation: tail vein injection, then staining of brain sections; design: species or system Tau P301S mice; details: 2 mg/kg tail vein injection; 0.5 hours after administration
T3 construct: tissue The Jackson Laboratory 008169; host or cells: brain of Tau P301S mice, compound injected in vivo, sections made afterwards
T3 sequence (P10636 1-412 isoform P10636-7 P272S): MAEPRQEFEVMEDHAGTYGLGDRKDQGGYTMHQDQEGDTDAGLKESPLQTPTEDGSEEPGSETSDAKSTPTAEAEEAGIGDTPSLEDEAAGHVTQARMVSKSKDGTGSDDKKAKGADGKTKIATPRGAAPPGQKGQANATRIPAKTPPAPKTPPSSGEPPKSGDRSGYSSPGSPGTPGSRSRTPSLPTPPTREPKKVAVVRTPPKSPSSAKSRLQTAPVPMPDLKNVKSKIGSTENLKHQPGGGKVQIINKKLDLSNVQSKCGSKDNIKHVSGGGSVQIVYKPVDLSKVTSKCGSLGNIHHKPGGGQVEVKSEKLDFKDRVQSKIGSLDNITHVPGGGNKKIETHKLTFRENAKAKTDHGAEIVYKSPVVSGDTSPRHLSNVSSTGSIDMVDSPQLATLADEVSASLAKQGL
Description: (§4) In vivo validation of the compounds was performed using 8-month-old wild-type mice (Jiangsu Aniphe Biolaboratory Inc), 12-month-old 5xFAD mice (The Jackson Laboratory; Catalog No.: 034840), 6-month-old Tau P301S mice (The Jackson Laboratory; Catalog No.: 008169), and rotenone-treated α-Syn A53T mice (The Jackson Laboratory; Catalog No.: 017682). All mice were stratified by sex and randomly divided into groups, and the compounds were administered via tail vein injection at a dose of 2 mg/kg. Tissues were harvested and mouse brain sections were prepared 0.5 hours after administration, followed by staining with anti-Aβ (Biolegend; Catalog No.: SIG-39300) or AT8 (Thermo Fisher; Catalog No.: MN1020) together with the compounds, respectively.

[6] = system: Aβ aggregates; assay: Fluorescence binding assay with protein aggregates (fluorescence spectrophotometer); details: Kd for Aβ to Kd for α-Synuclein
Description: as §1
(§5) Aβ PFF: Aβ (1-42) peptide (rPeptide; catalog No.: A-1163-1) was resolved in 9 volumes of ice-cold distilled water and vortexed occasionally. After 30 min, one volume of 10X fibril-forming buffer (0.2 M NaPi, 1.5 M NaCl, 0.2% NaN3, pH 7.5) was added. The final concentration of peptide was 1 mg/ml. The solution was incubated at 37 °C for one week.
as §2, §3

[7] = target: T4, Aβ aggregates (Homo sapiens, UniProt P05067); assay: as above; details: Aβ aggregates; compound 5 µM, 37°C, 5 min
T4 construct: Aβ (1-42) peptide (rPeptide; catalog No.: A-1163-1); purchased rPeptide A-1163-1
T4 sequence (P05067 672-713): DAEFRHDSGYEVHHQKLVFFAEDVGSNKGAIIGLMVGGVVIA
Description: as §1, §5, §2, §3

[8] = target: T5, Aβ (Homo sapiens, UniProt P05067); assay: In vivo validation: tail vein injection, then staining of brain sections; design: species or system 5xFAD mice; details: 2 mg/kg tail vein injection; 0.5 hours after administration
T5 construct: tissue The Jackson Laboratory 034840; host or cells: brain of 5xFAD mice, compound injected in vivo, sections made afterwards
T5 sequence (P05067 672-713 limits assumed): as the sequence (P05067 672-713) above
Description: as §4

SMILES	costaining with p-α-Syn S129 [1]	signals in α-Syn aggregated neurons [2]	pKd [3]	Ratio / α-Synuclein [4]	pKd [4]	specific binding to AT8 [5]	Ratio / α-Synuclein [6]	pKd [7]	specific binding to Aβ [8]
Cc1cc2nc(/C=C/c3ccc(O)c(N)c3)sc2cc1N(C)CCOCCF [Compound C, (E)-2-amino-4-(2-(6-((2-(2-fluoroethoxy)ethyl)(methyl)amino)-5-methylbenzo[d]thiazol-2-yl)vinyl)phenol]	costained	selectively yielded positive signals	6.50	2.00	6.20	no specific binding	4.80	5.82	no specific binding
COc1c(/C=C/c2nc3cc(C)c(N(C)CCOCCF)cc3s2)ccc(O)c1Br [Compound E, (E)-2-bromo-4-(2-(6-((2-(2-fluoroethoxy)ethyl)(methyl)amino)-5-methylbenzo[d]thiazol-2-yl)vinyl)-3-methoxyphenol]	costained	selectively yielded positive signals	7.81	2.34	7.44	no specific binding	5.59	7.06	no specific binding
CCN(CCOCCF)c1cc2sc(/C=C/c3ccc(O)c(Br)c3)nc2cc1C [Compound R, (E)-2-bromo-4-(2-(6-(ethyl(2-(2-fluoroethoxy)ethyl)amino)-5-methylbenzo[d]thiazol-2-yl)vinyl)phenol]	costained	selectively yielded positive signals	7.09	32.13	5.59	no specific binding	15.74	5.90	no specific binding
